Measured values as given in patent EP0908457B1, “3-(1,2-benzisothiazol- and isoxazol-5-Y1)-2,4(1H,3H)-pyrimidinedione or thione and 3-(1,2-benzisothiazol- and isoxazol-5-y1)-4(3H)-pyrimidinone or thione herbicidal agents” (BASF AKTIENGESELLSCHAFT, priority 1997, dated 1999).

Tests used:
[1] = system: Echinochloa oryzoides (Ard.) Fritsch.; assay: Preemergence weed control under flooded paddy conditions, ECHORC (Watergrass (Calif.)); assay type: in vivo; details: flooded paddy; for ECHORC herbicidal rating: preemergence, rated three to four weeks after treatment; for ECHORC: preemergence weeds, herbicidal effect rating 0-9, three to four weeks after treatment
Cyperus iria = assay: Preemergence weed control under flooded paddy conditions, CYPIR (Rice Flatsedge); assay type: in vivo; details: flooded paddy; for CYPIR herbicidal rating: preemergence, rated three to four weeks after treatment; for CYPIR: preemergence weeds, herbicidal effect rating 0-9, three to four weeks after treatment
Sagittaria pygmaea, L. = assay: Preemergence weed control under flooded paddy conditions, SAGPY (Arrowhead (Pygmaea)); assay type: in vivo; details: flooded paddy; for SAGPY herbicidal rating: preemergence, rated three to four weeks after treatment; for SAGPY: preemergence weeds, herbicidal effect rating 0-9, three to four weeks after treatment
[2] = system: Monochoria vaginalis, Presl.; assay: Preemergence weed control under flooded paddy conditions, MOOVA (Monochoria); assay type: in vivo; details: flooded paddy; for MOOVA herbicidal rating: preemergence, rated three to four weeks after treatment; for MOOVA: preemergence weeds, herbicidal effect rating 0-9, three to four weeks after treatment
[3] = system: Oryza sativa, (L.) Tebonnet; assay: Rice tolerance to post-transplant applications under flooded paddy conditions (Example 187), ORYSAT (Rice, Tebonnet); details: for ORYSAT herbicidal rating (rice tolerance): rated three to four weeks after treatment; for ORYSAT: herbicidal effect rating 0-9, three to four weeks after treatment
[4] = system: Cyperus serotinus, Rottb.; assay: Preemergence weed control under flooded paddy conditions, CYPSE (Flatsedge); assay type: in vivo; details: for CYPSE herbicidal rating: preemergence, rated three to four weeks after treatment; for CYPSE: preemergence weeds, herbicidal effect rating 0-9, three to four weeks after treatment

COc1cc(Cl)c(C)cc1-c1nsc2ccc(-n3c(=O)cc(C(F)(F)F)n(C)c3=O)cc12 [Example 506, 2,4(1H,3H)-Pyrimidinedione, 3-[3-(4-chloro-6-methoxy-m-tolyl)-1,2-benzisothiazol-5-yl]-1-methyl-6-(trifluoromethyl)-] showed an ECHORC herbicidal rating ([1]; 0.0320 kg/ha) of 7.5, an ECHORC herbicidal rating ([1]; 0.0620 kg/ha) of 9.0 and an ECHORC herbicidal rating ([1]; 0.1250 kg/ha) of 9.0. For the same compound, the ECHORC herbicidal rating ([1]; 0.2500 kg/ha) was 9.0, the CYPIR herbicidal rating (Cyperus iria; 0.0320 kg/ha) was 6.5 and the CYPIR herbicidal rating (Cyperus iria; 0.0620 kg/ha) was 8.0. It also gave a CYPIR herbicidal rating (Cyperus iria; 0.1250 kg/ha) of 9.0, a CYPIR herbicidal rating (Cyperus iria; 0.2500 kg/ha) of 9.0 and an SAGPY herbicidal rating (Sagittaria pygmaea, L.; 0.0320 kg/ha) of 2.5. The SAGPY herbicidal rating (Sagittaria pygmaea, L.; 0.0620 kg/ha) was 3.0, the SAGPY herbicidal rating (Sagittaria pygmaea, L.; 0.1250 kg/ha) was 3.0 and the SAGPY herbicidal rating (Sagittaria pygmaea, L.; 0.2500 kg/ha) was 4.5. It also gave an MOOVA herbicidal rating ([2]; 0.0320 kg/ha) of 8.0, an MOOVA herbicidal rating ([2]; 0.0620 kg/ha) of 9.0 and an MOOVA herbicidal rating ([2]; 0.1250 kg/ha) of 9.0. For the same compound, the MOOVA herbicidal rating ([2]; 0.2500 kg/ha) was 9.0, the “ORYSAT herbicidal rating (rice tolerance)” value (from here on “ORYSAT herbicidal rating”) ([3]; 0.0320 kg/ha) was 1.5 and the “ORYSAT herbicidal rating” value ([3]; 0.0620 kg/ha) was 1.5. For the same compound, the “ORYSAT herbicidal rating” value ([3]; 0.1250 kg/ha) was 1.5, the “ORYSAT herbicidal rating” value ([3]; 0.2500 kg/ha) was 2.0 and the CYPSE herbicidal rating ([4]; 0.0320 kg/ha) was 4.5. For the same compound, the CYPSE herbicidal rating ([4]; 0.0620 kg/ha) was 4.5, the CYPSE herbicidal rating ([4]; 0.1250 kg/ha) was 4.5 and the CYPSE herbicidal rating ([4]; 0.2500 kg/ha) was 7.0.
Work on CN(c1ccc(-c2nsc3ccc(-n4c(=O)cc(C(F)(F)F)n(C)c4=O)cc23)cc1)S(C)(=O)=O [Example 430, Methanesulfonanilide, 4'-{5-[3,6-dihydro-3-methyl-2,6-dioxo-4-(trifluoromethyl)-1(2H)-pyrimidinyl]-1,2-benzisothiazol-3-yl}-N-methyl-] yielded an ECHORC ([1]; 0.0320 kg/ha) of 5.0, an ECHORC ([1]; 0.0620 kg/ha) of 5.0 and an ECHORC ([1]; 0.1250 kg/ha) of 7.0. For the same compound, the ECHORC ([1]; 0.2500 kg/ha) was 9.0, the CYPIR (Cyperus iria; 0.0320 kg/ha) was 2.0 and the CYPIR (Cyperus iria; 0.0620 kg/ha) was 6.0. The CYPIR (Cyperus iria; 0.1250 kg/ha) was 7.0, the CYPIR (Cyperus iria; 0.2500 kg/ha) was 6.0 and the SAGPY (Sagittaria pygmaea, L.; 0.1250 kg/ha) was 6.0. For the same compound, the SAGPY (Sagittaria pygmaea, L.; 0.2500 kg/ha) was 7.0, the MOOVA ([2]; 0.0320 kg/ha) was 9.0 and the MOOVA ([2]; 0.0620 kg/ha) was 9.0. For the same compound, the MOOVA ([2]; 0.1250 kg/ha) was 9.0, the MOOVA ([2]; 0.2500 kg/ha) was 9.0 and the ORYSAT ([3]; 0.0320 kg/ha) was 3.0. The ORYSAT ([3]; 0.0620 kg/ha) was 2.0, the ORYSAT ([3]; 0.1250 kg/ha) was 4.0 and the ORYSAT ([3]; 0.2500 kg/ha) was 3.0. It also gave a CYPSE ([4]; 0.0320 kg/ha) of 0.0, a CYPSE ([4]; 0.0620 kg/ha) of 0.0 and a CYPSE ([4]; 0.1250 kg/ha) of 2.0. The CYPSE ([4]; 0.2500 kg/ha) was 7.0.
Cc1ccc(CS(=O)(=O)NC(=O)c2nsc3ccc(-n4c(=O)cc(C(F)(F)F)n(C)c4=O)cc23)cc1 [Example 464, 1,2-Benzisothiazole-3-carboxamide, 5-[3,6-dihydro-3-methyl-2,6-dioxo-4-(trifluoromethyl)-1(2H)-pyrimidinyl]-N-[(p-methylbenzyl)sulfonyl]-] was tested, and the ECHORC herbicidal rating ([1]; 0.0320 kg/ha) was 6.0, the ECHORC herbicidal rating ([1]; 0.1250 kg/ha) was 6.0 and the ECHORC herbicidal rating ([1]; 0.2500 kg/ha) was 9.0. For the same compound, the CYPIR herbicidal rating (Cyperus iria; 0.0320 kg/ha) was 0.0, the CYPIR herbicidal rating (Cyperus iria; 0.0620 kg/ha) was 3.0 and the CYPIR herbicidal rating (Cyperus iria; 0.1250 kg/ha) was 3.0. For the same compound, the CYPIR herbicidal rating (Cyperus iria; 0.2500 kg/ha) was 5.0, the SAGPY herbicidal rating (Sagittaria pygmaea, L.; 0.0320 kg/ha) was 0.0 and the SAGPY herbicidal rating (Sagittaria pygmaea, L.; 0.0620 kg/ha) was 0.0. For the same compound, the SAGPY herbicidal rating (Sagittaria pygmaea, L.; 0.1250 kg/ha) was 6.0, the SAGPY herbicidal rating (Sagittaria pygmaea, L.; 0.2500 kg/ha) was 4.0 and the MOOVA herbicidal rating ([2]; 0.0320 kg/ha) was 7.0. For the same compound, the MOOVA herbicidal rating ([2]; 0.0620 kg/ha) was 9.0, the MOOVA herbicidal rating ([2]; 0.1250 kg/ha) was 9.0 and the MOOVA herbicidal rating ([2]; 0.2500 kg/ha) was 6.0. The “ORYSAT herbicidal rating” value ([3]; 0.0320 kg/ha) was 0.0, the “ORYSAT herbicidal rating” value ([3]; 0.0620 kg/ha) was 2.0 and the “ORYSAT herbicidal rating” value ([3]; 0.1250 kg/ha) was 2.0. For the same compound, the “ORYSAT herbicidal rating” value ([3]; 0.2500 kg/ha) was 4.0, the CYPSE herbicidal rating ([4]; 0.0320 kg/ha) was 0.0 and the CYPSE herbicidal rating ([4]; 0.0620 kg/ha) was 0.0. It also gave a CYPSE herbicidal rating ([4]; 0.1250 kg/ha) of 0.0 and a CYPSE herbicidal rating ([4]; 0.2500 kg/ha) of 7.0.
